Legend:
U-2 OS cells [1] = experiment: APB frequency and APB telomere intensity in cells overexpressing FANCM variants; type: cell-based, human; details: overexpression
Source text: (a) Western immunoblotting of stable wild-type FANCM (FANCM+) or FANCM mutant overexpression in U-2 OS cells. […] (b) TRF analysis of U-2 OS cells overexpressing wild-type (FANCM+) or FANCM mutants. Gels were hybridized under native and denatured conditions with radiolabelled telomeric probes to detect the C-strand and G-strand. (c) Tukey boxplots of APB frequency (top panel) and mean APB telomere intensity (bottom panel) in U-2 OS cells overexpressing wild-type (FANCM+) or FANCM mutants. Out of 3 experiments, n=150 cells scored per variant, *p<0.05, **p<0.005, Mann-Whitney test.
(§1) FIG. 23. Defects in ALT phenotype suppression are exacerbated by overexpression of a double-mutant (DM) FANCM, in which both the MM2 domain (FF>AA) and the translocase domain (K117R) of FANCM are mutated. (a) Representative dot blots and quantitation of C-circle assays in U-2 OS cells stably overexpressing wild-type (WT) or FANCM domain mutants (K117R, FF>AA; DM). C-circles were normalized to the mean of empty vector control (EV). Error bars represent mean±SEM from n=3 experiments, *p<0.05, **p<0.005, Student's t-test. (b) Quantitation of APB frequency in U-2 OS cells overexpressing wild-type (WT) or FANCM mutants. Scatterplot bars represent the mean±SEM. Out of three experiments, n=150 cells were scored for each mutant, **p<0.005, Mann-Whitney test. (c) Quantitation of metaphase-TIFs in U-2 OS cells stably overexpressing wild-type (WT) or FANCM mutants. Scatterplot bars represent the mean±SEM. Out of three experiments, n=120 metaphases scored for each mutant, *p<0.05, **p<0.005, Mann-Whitney test. All statistical comparisons are relative to EV control.
(§2) Empty vector and wild-type FANCM (pCMV6-Myc-DDK) constructs were obtained from Origene Technologies. Wild type FANCM (SEQ ID NO: 2) and FANCM mutants (SEQ ID NOs: 19 to 28) were cloned into the pLenti-C-Myc-DDK-IRES-Neo backbone (Origene Technologies) by restriction enzyme subcloning of gene blocks synthesized by Integrated DNA Technologies (IDT). Lentivirus was produced by the Vector and Genome Engineering Facility (Children's Medical Research Institute). For stable overexpression, cells were transduced with lentivirus, allowed to recover for 24 h, and subject to G418 selection. Cells were maintained in G418 to ensure sustained overexpression.
Indirect IF and telomere FISH were performed on both interphase nuclei and metaphase spreads. For interphase IF experiments, cells were grown on coverslips or LabTek chamber slides (Thermo Scientific). Slides were prepared as described in Sobinoff et al., 2017. Cells on coverslips were washed twice with PBS, permeabilized with KCM buffer (120 mM KCl, 20 mM NaCl, 10 mM Tris pH 7.5, 0.1% Triton), washed again with PBST and PBS, then fixed with ice-cold 4% formaldehyde PBS solution at room temperature for 10 min. Coverslips were blocked with antibody-dilution buffer (20 mM Tris-HCl, pH 7.5, 2% (w/v) BSA, 0.2% (v/v) fish gelatin, 150 mM NaCl, 0.1% (v/v) Triton X-100 and 0.1% (w/v) sodium azide) and 0.1 mg/ml RNaseA for 30 min at 37° C. Cells were incubated with primary antibodies (Supplementary Table 1) for 1 h at 37° C. or 2 h at room temperature, then incubated with 1:1,000 dilution of appropriate Alexa Fluor conjugated secondary antibodies (Thermo Scientific). Coverslips were rinsed with PBS then fixed with 4% (v/v) formaldehyde at room temperature prior to telomere FISH. Coverslips were subjected to a graded ethanol series (75% for 2 min, 85% for 2 min, and 100% for 2 min) and allowed to air-dry. […]

U-2 OS cells [2] = experiment: C-circle assay in cells overexpressing FANCM variants; type: cell-based, human; details: stable overexpression, compared to vector control
Source text: (a) Schematic of FANCM domain interactions, mutations or deletions. For clarity, domains have been color coded by functional role (bottom panel). (b) Quantitation of metaphase-TIFs in U-2 OS cells stably overexpressing wild-type (FANCM+) or FANCM mutants. Scatterplot bars represent the mean±SEM. Out of 3 experiments, n≥110 metaphases scored for each mutant, *p<0.05, **p<0.005, Mann-Whitney test. (c) Quantitation of fragile telomeres in U-2 OS cells stably overexpressing wild-type (FANCM+) or FANCM mutants. Scatterplot bars represent the mean±SEM. Out of 3 experiments, n>100 metaphases scored for each mutant, *p<0.05, **p<0.005, Mann-Whitney test. (d) Representative dot blots and quantitation of C-circle assays in U-2 OS cells stably overexpressing wild-type (FANCM+) or FANCM domain mutants. C-circles were normalized to the mean of vector control. Error bars represent mean±SEM from n=3 experiments, *p<0.05, **p<0.005, Student's t-test. (e) Single molecule analysis of telomeric extension events (top panel) and length of extension events (bottom panel) in U-2 OS cells stably overexpressing wild-type (FANCM+) or FANCM domain mutants. Error bars represent mean±SEM of n≥350 fibers out of 3 experiments, *p<0.05, **p<0.005, Student's t-test.
as §1, §2
C-circles were amplified with Phi29 polymerase using dATP, dTTP and dGTP overnight. Products were dot blotted onto Biodyne B membranes (Pall) and pre-hybridised in PerfectHyb Plus (Sigma) for at least 30 min. Radiolabeled telomeric C-probe was then added and blots were hybridized overnight at 37° C. (Henson et al., 2009). Blots were washed with 0.5×SSC, 0.1% SDS three times for 5 min each then exposed to phosphor screen. Imaging was performed on the Typhoon FLA 7000 system (GE Healthcare) with a PMT of 750 V.

Substance	intensity of telomeric signal within APBs (U-2 OS cells [1])	number of APBs (U-2 OS cells [1])	C-circle levels (U-2 OS cells [2])
K117R: FANCM mutant (SEQ ID NO: 20) substituted at K117R, DEAH domain disrupted	significant increase	significant increase	did not cause a change in C-circle levels
FF>AA: FANCM mutant (SEQ ID NO: 25), double substitution F1232A/F1236A within the MM2 domain	significant increase	significant increase	approximate two-fold increase in C-circles

Source: US20230149507A1, “TREATMENT OF ALT CANCERS” (INSTITUTO DE MEDICINA MOLECULAR JOÃO LOBO ANTUNES, priority 2019, published 2023)
